# In article PMC9618804, “CXCR1 and its downstream NF-κB inflammation signaling pathway as a key target of Guanxinning injection for myocardial ischemia/reperfusion injury” (Frontiers in Immunology, 2022):
# Columns and labels:
# hCXCR1 = biological target: T1, hCXCR1 (Homo sapiens, UniProt P25024); assay: CETSA in cell lysate, Western blot; assay type: biochemical; details: AC-16 lysate; 20 uM DSS, 30 min at room temperature, 3 min at 37-73 C
# T1 construct: gene CXCR1; native full-length receptor in freeze-thaw lysate supernatant of human AC-16 cardiomyocytes; detected by Western blot
# T1 sequence (P25024 1-350): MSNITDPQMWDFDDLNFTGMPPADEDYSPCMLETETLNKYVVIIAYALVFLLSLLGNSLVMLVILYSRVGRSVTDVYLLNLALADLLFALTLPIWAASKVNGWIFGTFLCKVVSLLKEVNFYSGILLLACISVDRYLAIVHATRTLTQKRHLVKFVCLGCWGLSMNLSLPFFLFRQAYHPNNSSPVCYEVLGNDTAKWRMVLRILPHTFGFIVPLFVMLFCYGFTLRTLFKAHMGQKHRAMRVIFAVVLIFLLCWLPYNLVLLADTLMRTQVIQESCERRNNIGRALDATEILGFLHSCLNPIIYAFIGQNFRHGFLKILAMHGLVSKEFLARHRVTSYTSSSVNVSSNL
# mCXCR1 = biological target: T2, mCXCR1 (Mus musculus, UniProt Q810W6); assay: CETSA and isothermal dose-response (ITDRF-CETSA) in cell lysate, Western blot; assay type: biochemical; details: HL-1 lysate; 20 uM DSS, 30 min at room temperature, 3 min at 37-73 C; ITDRF 0-20 uM at 61 C
# T2 construct: gene Cxcr1; native full-length receptor in freeze-thaw lysate supernatant of mouse HL-1 cardiomyocytes; detected by Western blot (anti-CXCR1 bs-1009R)
# T2 sequence (Q810W6 1-351): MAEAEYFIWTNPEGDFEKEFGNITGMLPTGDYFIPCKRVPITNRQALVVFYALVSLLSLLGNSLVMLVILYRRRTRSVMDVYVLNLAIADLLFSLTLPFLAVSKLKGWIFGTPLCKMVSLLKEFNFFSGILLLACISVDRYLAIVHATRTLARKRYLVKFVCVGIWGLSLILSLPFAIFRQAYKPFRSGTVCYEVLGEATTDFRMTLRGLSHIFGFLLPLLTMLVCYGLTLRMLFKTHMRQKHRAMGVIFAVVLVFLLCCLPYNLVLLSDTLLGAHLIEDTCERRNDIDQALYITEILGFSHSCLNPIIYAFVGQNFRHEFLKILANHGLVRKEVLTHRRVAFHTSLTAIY
smiles,measurement,setting,value
"O=C(O)[C@H](O)Cc1ccc(O)c(O)c1 [DSS, Danshensu]",thermal stabilization (CETSA),hCXCR1,DSS also binds to hCXCR1 to increase its thermal stability
same,thermal stabilization (CETSA),mCXCR1,this thermal stabilization between Danshensu and mCXCR1 was dose dependent from ITDRFCETSA
